In patent US20030186345A1, “Macromolecular enzyme substrates” (priority 2003, published 2003):

Experiments:
salivary amylase [1] = target: T1, salivary amylase (Homo sapiens, UniProt P0DUB6); experiment: Amylase assay, Km determination, salivary amylase; assay type: biochemical
T1 construct: purchased Sigma (St. Louis, Mo.)
T1 sequence (P0DUB6 16-511): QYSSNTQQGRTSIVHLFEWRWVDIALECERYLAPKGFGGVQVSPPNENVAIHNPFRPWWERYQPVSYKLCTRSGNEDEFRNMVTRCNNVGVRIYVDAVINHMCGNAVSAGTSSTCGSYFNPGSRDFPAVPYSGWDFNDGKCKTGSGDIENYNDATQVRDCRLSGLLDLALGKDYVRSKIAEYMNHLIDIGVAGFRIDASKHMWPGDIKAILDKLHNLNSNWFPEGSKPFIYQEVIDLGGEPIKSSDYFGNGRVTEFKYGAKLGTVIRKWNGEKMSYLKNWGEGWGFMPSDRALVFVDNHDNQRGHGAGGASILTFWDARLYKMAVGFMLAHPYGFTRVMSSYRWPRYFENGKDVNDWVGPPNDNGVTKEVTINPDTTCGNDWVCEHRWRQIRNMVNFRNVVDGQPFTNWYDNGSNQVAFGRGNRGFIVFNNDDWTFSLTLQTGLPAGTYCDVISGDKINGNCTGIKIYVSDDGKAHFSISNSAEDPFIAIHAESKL
Protocol: (§1) Amylase assays using oligosaccharide substrates were automated using a Cobas Fara analyzer (Roche, Basel, Switzerland). Unless indicated, assay temperature was 37° C., and absorbance changes were measured at 405 nm every minute over a 20 minute period. Assay buffer was either 52.5 mmol/L 4-(2-hydroxyethyl)-1-piperazine-ethanesulfonic acid (HEPES) buffer, pH 7.15, 87 mmol/L sodium chloride, 12.6 mmol/L magnesium chloride, 0.075 mmol/L calcium chloride (HEPES buffer) or 50 mmol/L MES, pH 6.0, 350 mmol/L sodium chloride, 6 mmol/L calcium acetate, 900 mmol/L KSCN (MES buffer). Amylases were diluted into assay buffer containing 1 mg/mL rabbit albumin. Final reaction volumes were 200 μL and consisted of 3 solutions, R1, R2, and R3. […] Depending upon the assay, R2 and R3 contained either amylase or substrate. R1 and R2 solutions were mixed for 10 seconds prior to the addition of R3. For immunoinhibition studies, antibodies were preincubated with amylase (R2) for 30 minutes at room temperature prior to the addition of substrate (R3). Unless indicated, final concentrations of MABs were 10 mg/L. Reaction blanks were determined by measuring the absorbance of substrate or enzyme alone at 405 nm. When EtG7pNP or mPEG-EtG7pNP were used as substrates, α-glucosidase was included in the blank measurement. Differences between the test samples and reagent blanks were determined. Activity of stock solutions of amylase was based on activity measured with a Hitachi 917 analyzer using a Roche kit (Cat. No 1876473) (Indianapolis, Ind.) which uses EtG7pNP as the substrate. For Km determinations, 4 or 5 different substrate concentrations (0.05 mmol/L to 6 mmol/L) with salivary (4-20 U/L) or pancreatic (4-40 U/L) amylase were used.

pancreatic amylase [2] = target: T2, pancreatic amylase (Homo sapiens, UniProt P04746); experiment: Immunoinhibition by polyclonal antiamylase antisera, pancreatic amylase; assay type: biochemical
T2 construct: purchased Scripps Laboratories (San Diego, Calif.)
T2 sequence (P04746 16-511): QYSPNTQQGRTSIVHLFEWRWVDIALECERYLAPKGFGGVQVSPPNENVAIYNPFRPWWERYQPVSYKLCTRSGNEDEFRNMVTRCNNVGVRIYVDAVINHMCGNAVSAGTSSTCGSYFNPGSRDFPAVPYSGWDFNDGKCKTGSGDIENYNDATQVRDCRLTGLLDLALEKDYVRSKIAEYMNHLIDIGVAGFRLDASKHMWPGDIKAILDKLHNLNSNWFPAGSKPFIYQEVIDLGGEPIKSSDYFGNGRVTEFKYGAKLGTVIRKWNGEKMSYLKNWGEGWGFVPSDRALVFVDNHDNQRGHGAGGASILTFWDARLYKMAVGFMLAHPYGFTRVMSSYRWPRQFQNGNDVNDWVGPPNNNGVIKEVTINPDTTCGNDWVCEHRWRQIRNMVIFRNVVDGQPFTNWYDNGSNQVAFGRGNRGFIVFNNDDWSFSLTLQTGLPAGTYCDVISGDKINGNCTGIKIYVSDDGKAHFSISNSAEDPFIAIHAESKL
Protocol: (§2) Amylase assays using oligosaccharide substrates were automated using a Cobas Fara analyzer (Roche, Basel, Switzerland). Unless indicated, assay temperature was 37° C., and absorbance changes were measured at 405 nm every minute over a 20 minute period. Assay buffer was either 52.5 mmol/L 4-(2-hydroxyethyl)-1-piperazine-ethanesulfonic acid (HEPES) buffer, pH 7.15, 87 mmol/L sodium chloride, 12.6 mmol/L magnesium chloride, 0.075 mmol/L calcium chloride (HEPES buffer) or 50 mmol/L MES, pH 6.0, 350 mmol/L sodium chloride, 6 mmol/L calcium acetate, 900 mmol/L KSCN (MES buffer). Amylases were diluted into assay buffer containing 1 mg/mL rabbit albumin. […] Unless indicated, final concentrations of MABs were 10 mg/L. Reaction blanks were determined by measuring the absorbance of substrate or enzyme alone at 405 nm. […] Differences between the test samples and reagent blanks were determined. Activity of stock solutions of amylase was based on activity measured with a Hitachi 917 analyzer using a Roche kit (Cat. No 1876473) (Indianapolis, Ind.) which uses EtG7pNP as the substrate. […]
(§3) The effects of two different polyclonal antiamylase immunoglobulin preparations on salivary and pancreatic amylase activity using mPEG-coupled and uncoupled substrates were tested. […] 100% amylase activity was determined in the absence of any antibody.

salivary amylase [3] = target: T1, salivary amylase; experiment: Immunoinhibition by MABs, salivary amylase, oligosaccharide substrates; assay type: biochemical; conditions: salivary isoenzyme, 20 U/I (G5, G7 substrates) or 600 U/I (G3 substrates), 100% = no MAB; for % activity with MAB 66C7 / % activity with MAB 88E8: MAB 10 mg/L
Protocol: as §1
When both MABs were used, MAB 88E8 concentrations were varied in the presence of 10 mg/L MAB 66C7. At an antibody concentration of 10 mg/L, MAB 88E8 inhibits 98% of salivary amylase activity in HEPES buffer and 34% of salivary amylase activity in MES buffer. MAB 66C7 increases salivary amylase activity in HEPES buffer and has no effect on salivary amylase activity in MES buffer. Using a mixture of MABs 88E8 and 66C7 at concentrations of […], >99% of salivary amylase activity is inhibited in HEPES buffer and 73% of salivary amylase activity is inhibited in MES buffer. When the pH of the MES buffer was increased from 6.0 to 6.5 and the concentration of KSCN was decreased from 900 mmol/L to 300 mmol/L, >97% of salivary amylase activity was inhibited by MAB 88E8.

salivary amylase [4] = target: T1, salivary amylase; experiment: Extent of cleavage of substrates by excess salivary amylase; assay type: biochemical
Protocol: Substrates were diluted into HEPES buffer and absorbances were recorded between 250 nm and 500 nm. To determine the maximum amount of substrate that could be cleaved with amylase, substrates were incubated with 60 units/mL of salivary amylase. When EtG7pNP and mPEG-EtG7pNP were used, 4 units/mL of α-glucosidase were included in the incubation.
To determine the maximal amount of mPEG-coupled and uncoupled substrate that could be cleaved by amylase, substrates were incubated with excess salivary amylase and the amount of free chromophore released was determined by measuring absorptions between 250 nm and 500 nm during amylase digestion. […] Incubations were monitored until endpoints of reactions were approached. α-Glucosidase was included in the incubation when EtG7pNP and mPEG-EtG7pNP were used as substrates.

pancreatic amylase [5] = target: T2, pancreatic amylase; experiment: Immunoinhibition by MABs, pancreatic amylase, oligosaccharide substrates; assay type: biochemical; conditions: pancreatic isoenzyme, 40 U/I (G5, G7 substrates) or 400 U/I (G3 substrates), 100% = no MAB; for % activity with MAB 66C7 / % activity with MAB 88E8: MAB 10 mg/L
Protocol: as §1

pancreatic amylase [6] = target: T2, pancreatic amylase; experiment: Amylase assay, Km determination, pancreatic amylase; assay type: biochemical
Protocol: as §1, with “Assay buffer was either 52.5 mmol/L 4-(2-hydroxyethyl)-1-piperazine-ethanesulfonic acid (HEPES) buffer, pH 7.15, 87 mmol/L sodium chloride, 12.6 mmol/L magnesium chloride, 0.075 mmol/L calcium chloride (HEPES buffer) or 50 mmol/L MES, pH 6.0, 350 mmol/L sodium chloride, 6 mmol/L calcium acetate, 900 mmol/L KSCN (MES buffer).” left out

salivary amylase [7] = target: T1, salivary amylase; experiment: Immunoinhibition by polyclonal antiamylase antisera, salivary amylase; assay type: biochemical
Protocol: as §2, §3

[8] = system: pancreatic and salivary amylase; experiment: Lag phase of amylase reaction; assay type: biochemical, human; conditions: purified pancreatic and salivary amylase; Cobas Fara analyzer
Protocol: as §2, with “albumin. Final reaction volumes were 200 μL and consisted of 3 solutions, R1, R2, and R3. […] Depending upon the assay, R2 and R3 contained either amylase or substrate. R1 and R2 solutions were mixed for 10 seconds prior to the addition of R3.” for “albumin.”

[9] = 37° C., pH 6.5 in MES buffer containing 300 mM KSCN

Structure (SMILES) | Km (salivary amylase [1]; 37° C., HEPES buffer pH 7.15) | Fold lower concentration of antibody inhibiting cleavage than for G3ClpNP (pancreatic amylase [2]) | % activity with MAB 88E8 + 66C7 (salivary amylase [3]) | % activity with MAB 66C7 (salivary amylase [3]) | % activity with MAB 88E8 (salivary amylase [3]) | Substrate cleaved by salivary amylase and α-glucosidase (salivary amylase [4]; digestion for 60 minutes) | % activity with MAB 88E8 + 66C7 (pancreatic amylase [5]) | % activity with MAB 66C7 (pancreatic amylase [5]) | % activity with MAB 88E8 (pancreatic amylase [5]) | Km (pancreatic amylase [6]; 37° C., HEPES buffer pH 7.15) | Fold lower concentration of antibody inhibiting cleavage than for G3ClpNP (salivary amylase [7]) | Km (salivary amylase [1]; 25° C., HEPES buffer pH 7.15) | Km (salivary amylase [1]; [9]) | CNP released by salivary amylase (salivary amylase [4]; excess salivary amylase, 40 minutes at room temperature) | Km (pancreatic amylase [6]; 25° C., HEPES buffer pH 7.15) | Km (pancreatic amylase [6]; [9]) | Lag phase, time to reach maximal rates [8]
CC1OC[C@H]2O[C@H](O[C@H]3[C@H](O)[C@@H](O)[C@@H](O[C@H]4[C@H](O)[C@@H](O)[C@@H](O[C@H]5[C@H](O)[C@@H](O)[C@@H](O[C@H]6[C@H](O)[C@@H](O)[C@@H](O[C@H]7[C@H](O)[C@@H](O)[C@@H](O[C@H]8[C@H](O)[C@@H](O)[C@@H](Oc9ccc([N+](=O)[O-])cc9)O[C@@H]8CO)O[C@@H]7CO)O[C@@H]6CO)O[C@@H]5CO)O[C@@H]4CO)O[C@@H]3CO)[C@H](O)[C@@H](O)[C@@H]2O1 (stereo partly drawn) [EtG7pNP, 4,6-O-ethylidene p-nitrophenyl-α-D-maltoheptaoside] | 130 µM | ~3 fold | 2% | 105% | 6% | ~90% | 96% | 105% | 96% | 170 µM | > 50 fold | – | – | – | – | – | –
O=[N+]([O-])c1ccc(O[C@H]2O[C@H](CO)[C@@H](O[C@H]3O[C@H](CO)[C@@H](O[C@H]4O[C@H](CO)[C@@H](O)[C@H](O)[C@H]4O)[C@H](O)[C@H]3O)[C@H](O)[C@H]2O)c(Cl)c1 [Substrate G3ClpNP, 2-chloro-p-nitrophenol-α-D-maltotrioside] | 6900 µM | – | 1% | 104% | 3% | – | 103% | 117% | 103% | 2200 µM | – | 4600 µM | 2000 µM | ~90% | 1300 µM | 610 µM | little or no lag phase
